Consider 2 compounds from US12630527B2, “Broad spectrum anti-cancer compounds” (The Regents of the University of California, priority 2019, dated 2026).

SMILES strings stand for the structures. Bounds are passed on as bounds.

Assay [1] deals with Ishikawa. Nature of the assay: High Throughput Screen for growth inhibition, Ishikawa. In kind it is cell-based. To be noted: Endometrial (uterine), 3 days, unit not given. On the procedure:
(§1) The High Throughput Screen method is described below. The endpoint readout of this assay is based upon quantitation of ATP as an indicator of viable cells.
(§2) Cell lines that have been preserved in liquid nitrogen are thawed and expanded in growth media (see Table 1-3). Once cells have reached expected doubling times, screening begins. Cells are seeded in growth media in black 384-well tissue culture treated plates at 500-1500 cells per well (as noted in Analyzer). Cells are equilibrated in assay plates via centrifugation and placed at 37° C. 5% CO2 for twenty-four hours before treatment. […] Assay plates are incubated with compound for 3 days and are then analysed using CellTiter-Glo 2.0. All data points are collected via automated processes and are subject to quality control and analysed using Horizon's software.
(§3) Growth Inhibition (GI) is utilized as a measure of cell growth. The GI percentages are calculated by applying the following test and equation: If T<V_0: 100*(1−(T−V_0)/V_0) If T≥V_0: 100*(1−(T−V_0)/(V−V_0)) where T is the signal measure for a test article, V is the untreated/vehicle-treated control measure, and Vo is the untreated/vehicle control measure at time zero (also colloquially referred as T0 plates). This formula is derived from the Growth Inhibition calculation used in the National Cancer Institute's NCI-60 high throughput screen. […]

Assay [2] relates to MOLT-4. As to the kind of experiment: High Throughput Screen for growth inhibition, MOLT-4. Format: cell-based. To be noted: MOLT-4, Leukemia; 3 days; unit not given. On the procedure:
as §1, §2
(§4) Growth Inhibition (GI) is utilized as a measure of cell growth. The GI percentages are calculated by applying the following test and equation: If T<V_0: 100*(1−(T−V_0)/V_0) If T≥V_0: 100*(1−(T−V_0)/(V−V_0)) where T is the signal measure for a test article, V is the untreated/vehicle-treated control measure, and Vo is the untreated/vehicle control measure at time zero (also colloquially referred as T0 plates). This formula is derived from the Growth Inhibition calculation used in the National Cancer Institute's NCI-60 high throughput screen. For the purposes of this report, all data analysis was performed in Growth Inhibition (except where noted).
(§5) A GI of 100% represents complete growth inhibition (cytostasis) and in this case cells treated with compound for 3 days would have the same endpoint reading as TO control cells. A GI of 200% represents complete death (cytotoxicity) of all cells in the culture well and in this case the T reading at 3 days will be lower than the TO control (values near or at zero).
(§6) Horizon also provides Inhibition as a measure of cell viability. Inhibition levels of 0% represent no inhibition of cell growth by treatment. Inhibition of 100% represents no doubling of cell numbers during the treatment window. Both cytostatic and cytotoxic treatments can yield an Inhibition percentage of 100%. Inhibition percentage is calculated as the following: I=1−T/U where T is the treated and U is the untreated/vehicle control.

The subject of assay [3] is Kasumi-1. Nature of the assay: High Throughput Screen for growth inhibition, Kasumi-1. Format: cell-based. The following applies: Kasumi-1, Leukemia; 3 days; unit not given. On the procedure: as §1, §2, §3
Assay [4] has as its system HCT-116. Nature of the assay: High Throughput Screen for growth inhibition, HCT-116. Format: cell-based. To be noted: HCT-116, Colon; 3 days; unit not given. On the procedure: as §1, §2, §3
In assay [5] the test system is AGS. As to the kind of experiment: High Throughput Screen for growth inhibition, AGS. In kind it is cell-based. To be noted: Gastric, 3 days, unit not given. On the procedure: as §1, §2, §4, §5, §6
Assay [6] deals with SW480. Nature of the assay: High Throughput Screen for growth inhibition, SW480. In kind it is cell-based. The following applies: SW480, Colon; 3 days; unit not given. On the procedure: as §1, §2, §3
In assay [7] the test system is BICR16. As to the kind of experiment: High Throughput Screen for growth inhibition, BICR16. To be noted: BICR16, Head and Neck; 3 days; unit not given. Format: cell-based. On the procedure:
as §1, §2, §4, §5
(§7) Horizon also provides Inhibition as a measure of cell viability. Inhibition levels of 0% represent no inhibition of cell growth by treatment. […] Inhibition percentage is calculated as the following: I=1−T/U where T is the treated and U is the untreated/vehicle control.

In assay [8] the test system is LUDLU-1. Nature of the assay: High Throughput Screen for growth inhibition, LUDLU-1. In kind it is cell-based. The following applies: LUDLU-1, LUSC; 3 days; unit not given. Here is the method:
as §1, §2, §4, §5, §7

Assay [9] relates to MC-F7. Nature of the assay: High Throughput Screen for growth inhibition, MC-F7 (MCF7). Format: cell-based. To be noted: MC-F7, Breast (luminal); 3 days; unit not given. On the procedure:
as §1, §2, §3

The test system of assay [10] is Panc 04 03. Nature of the assay: High Throughput Screen for growth inhibition, Panc 04 03. Format: cell-based. To be noted: Panc 04 03, Pancreatic; 3 days; unit not given. On the procedure: as §1, §2, §3
Assay [11] has as its system SUM159PT. Nature of the assay: High Throughput Screen for growth inhibition, SUM159PT. Format: cell-based. The following applies: Breast, 3 days, unit not given. Here is the method: as §1, §2, §3
Assay [12] deals with A549. Nature of the assay: High Throughput Screen for growth inhibition, A549. To be noted: A549, lung adenocarcinoma; 3 days; unit not given. Format: cell-based. Here is the method:
as §1, §2, §3

The test system of assay [13] is NCI-H520. As to the kind of experiment: High Throughput Screen for growth inhibition, NCI-H520. In kind it is cell-based. The following applies: NCI-H520, LUSC; 3 days; unit not given. On the procedure: as §1, §2, §3
Assay [14] has as its system MV4-11. As to the kind of experiment: High Throughput Screen for growth inhibition (CellTiter-Glo 2.0), MV4-11. Format: cell-based. To be noted: MV4-11, Leukemia; 3 days with compound; unit not given. Here is the method: as §1, §2, §3
Background: ATP-based viability assays read luminescence as a measure of living cells.

In assay [15] the test system is HEC-50B. Nature of the assay: High Throughput Screen for growth inhibition, HEC-50B. The following applies: Endometrial (uterine), 3 days, unit not given. Format: cell-based. On the procedure:
as §1, §2, §3

Assay [16] relates to PECAPJ15. As to the kind of experiment: High Throughput Screen for growth inhibition, PECAPJ15. In kind it is cell-based. To be noted: PECAPJ15, Head and Neck; 3 days; unit not given. On the procedure: as §1, §2, §3
In assay [17] the test system is SKOV-3. As to the kind of experiment: High Throughput Screen for growth inhibition, SKOV-3. In kind it is cell-based. To be noted: SKOV-3, Ovarian; 3 days; unit not given. On the procedure:
as §1, §2, §3

In assay [18] the test system is Pancreatic. To be noted: read-out: EC50 of chemo SOC; cited from earlier work.

As to `CN(Cc1ccc(C(F)(F)F)cc1)c1ccc(CNC2CC2)cn1` [TR-YTH-10], the “Growth Inhibition (GI) Values” in assay [1] came to 22.531; in assay [2] it was 14.304; in [3] it was 10.784; in [4], 21.453; in [5], 21.842; in assay [6], 25.275. The “Growth Inhibition (GI) Values” in assay [7] turned out to be 12.966; in [8], 20.311; in assay [9] it was 24.642; in [10], 28.024; in [11] it was 56.597; in [12] it was 24.437. For the same compound, the “Growth Inhibition (GI) Values” in [13] amounted to 24.266; in [14], 23.158; in assay [15], 37.217; in assay [16], 44.646; in [17] it was 25.341.
Consider `Nc1ccn([C@@H]2O[C@H](CO)[C@@H](O)C2(F)F)c(=O)n1` [gemcitabine], for which the EC50 (usually the concentration needed to bring the measured effect to its halfway point) in [18] is under 1000 nM.
